Activity calls are given as the source filed them. The rule behind the calls is not given here.
Experiments:
Assay type in all cases: cell-based
[1] = biological target: Sphingosine 1-phosphate receptor 1 (Homo sapiens) (UniProt P21453); assay: In vitro binding affinity towards Endothelial differentiation G-protein coupled receptor 1 in CHO cells using [3H]S1P as radioligand relative to SIP
[2] = biological target: Sphingosine 1-phosphate receptor 3 (Homo sapiens) (UniProt Q99500); assay: In vitro binding affinity towards Endothelial differentiation G-protein coupled receptor 3 in CHO cells using [3H]S1P as radioligand relative to SIP
[3] = biological target: Sphingosine 1-phosphate receptor 2 (Homo sapiens) (UniProt O95136); assay: In vitro binding affinity towards Endothelial differentiation G-protein coupled receptor 5 in CHO cells using [3H]S1P as radioligand relative to SIP
[4] = biological target: Sphingosine 1-phosphate receptor 1 (Homo sapiens) (UniProt P21453); assay: In vitro binding affinity towards Endothelial differentiation G-protein coupled receptor 1 in CHO cells using [3H]S1P as radioligand relative to SIP; Not active
[5] = biological target: Sphingosine 1-phosphate receptor 3 (Homo sapiens) (UniProt Q99500); assay: In vitro binding affinity towards Endothelial differentiation G-protein coupled receptor 3 in CHO cells using [3H]S1P as radioligand relative to SIP; Not active
[6] = biological target: Sphingosine 1-phosphate receptor 2 (Homo sapiens) (UniProt O95136); assay: In vitro binding affinity towards Endothelial differentiation G-protein coupled receptor 5 in CHO cells using [3H]S1P as radioligand relative to SIP; Not active

Sphingosine 1-phosphate receptor 1 (Homo sapiens), sequence (P21453 whole entry): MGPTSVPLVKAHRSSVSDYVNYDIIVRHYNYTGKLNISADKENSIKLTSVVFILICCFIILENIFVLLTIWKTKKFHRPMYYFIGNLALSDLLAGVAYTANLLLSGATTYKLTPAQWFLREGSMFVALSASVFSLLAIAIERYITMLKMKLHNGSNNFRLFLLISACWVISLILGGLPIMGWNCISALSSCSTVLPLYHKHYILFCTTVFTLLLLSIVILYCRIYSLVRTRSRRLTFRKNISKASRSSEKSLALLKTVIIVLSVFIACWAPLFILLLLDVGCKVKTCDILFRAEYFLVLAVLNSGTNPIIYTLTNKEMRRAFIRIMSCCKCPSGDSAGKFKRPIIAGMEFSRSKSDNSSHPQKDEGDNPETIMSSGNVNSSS
Sphingosine 1-phosphate receptor 3 (Homo sapiens), sequence (Q99500 whole entry): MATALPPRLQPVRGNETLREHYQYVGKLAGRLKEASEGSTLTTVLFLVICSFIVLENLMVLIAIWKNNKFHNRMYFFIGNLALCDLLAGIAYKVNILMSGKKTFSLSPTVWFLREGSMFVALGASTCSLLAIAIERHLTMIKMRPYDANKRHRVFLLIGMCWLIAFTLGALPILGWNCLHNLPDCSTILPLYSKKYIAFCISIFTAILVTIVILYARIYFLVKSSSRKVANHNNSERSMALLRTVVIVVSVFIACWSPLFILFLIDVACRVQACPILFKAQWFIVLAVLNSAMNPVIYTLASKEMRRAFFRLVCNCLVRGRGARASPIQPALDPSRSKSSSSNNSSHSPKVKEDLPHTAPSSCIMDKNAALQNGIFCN
Sphingosine 1-phosphate receptor 2 (Homo sapiens), sequence (O95136 whole entry): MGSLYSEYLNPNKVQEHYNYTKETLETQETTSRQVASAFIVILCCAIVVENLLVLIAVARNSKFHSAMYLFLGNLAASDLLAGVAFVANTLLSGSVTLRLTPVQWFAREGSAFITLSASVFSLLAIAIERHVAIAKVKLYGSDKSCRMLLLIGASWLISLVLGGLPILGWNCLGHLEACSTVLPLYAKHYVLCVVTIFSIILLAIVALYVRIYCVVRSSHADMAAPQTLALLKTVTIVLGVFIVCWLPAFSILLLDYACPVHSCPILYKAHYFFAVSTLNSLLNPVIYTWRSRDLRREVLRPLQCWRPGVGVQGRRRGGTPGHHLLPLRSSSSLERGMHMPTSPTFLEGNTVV

Row | Structure (SMILES) | Relative binding affinity [1] [%] | Relative binding affinity [2] [%] | Relative binding affinity [3] [%] | Relative binding affinity [4] | Relative binding affinity [5] | Relative binding affinity [6]
1 | CCCCCCCCCCCCCCC[C@@H](O)[C@@H](N)COP(=O)(O)O | 41 | 86 | 54 |  |  | 
2 | CCCCCCCCCCCCCCC[C@H](O)[C@@H](N)COP(=O)(O)O | 12 | 51 | 30 |  |  | 
3 | CCCCCCCCCCCCC/C=C/[C@H](O)[C@H](N)COP(=O)(O)O | 7.4 | 20 | 41 |  |  | 
4 | CCCCCCCCCCCCCCCC[C@@H](N)COP(=O)(O)O |  | 29 |  |  |  | 
5 | CCCCCCCCCCCCC/C=C/[C@@H](O)[C@@H](N)COP(=O)(OC)OC |  |  |  | inactive | inactive | inactive
6 | CCCCCCCCCCCCCCC[C@H](O)[C@H](N)COP(=O)(O)O |  |  |  | inactive | inactive | inactive
7 | CCCCCCCCCCCCC/C=C/[C@H](O)[C@@H](N)COP(=O)(O)O | 27 | 46 | 23 |  |  | 

Reference: ChEMBL document CHEMBL1136264, “Syntheses of sphingosine-1-phosphate stereoisomers and analogues and their interaction with EDG receptors” (Bioorg Med Chem Lett, 2003)
